Reference: patent US20100099847A1 (Kyowa Hakko Bio Co., Ltd., priority 2006, published 2010)

Key:
[1] = volume median diameter
Experimental: This is synonymous with volume median diameter, and it was measured using a laser diffraction and scattering particle diameter analyzer, the LMS-24 SK Laser Micron Sizer (Seishin Enterprise Co. Ltd.) and expressed as a cumulative 50% volume particle diameter.

[2] = width of approximately 300 crystals
Experimental: The crystals were observed and photographed using a VH-8000 digital microscope (Keyence Corporation). The width of approximately 300 crystals was measured and calculations performed.

Row | Average particle diameter [1] [μm] | Average width [2] [μm] | Compound
1 | 9 |  | N[C@@H](CCC(=O)N[C@@H](CS)C(=O)NCC(=O)O)C(=O)O [Commercial product A, glutathione]
2 |  | 3 | N[C@@H](CCC(=O)N[C@@H](CS)C(=O)NCC(=O)O)C(=O)O [commercial product B, glutathione]
